Measured values as given in patent publication US20210317134A1, “UBIQUITIN-SPECIFIC-PROCESSING PROTEASE 7 (USP7) MODULATORS AND USES THEREOF” (RAPT THERAPEUTICS, INC., priority 2019, published 2021).

What follows are molecules tested against USP7 (Homo sapiens, UniProt Q93009) (assay: USP7 inhibitory potency (Table 1)).
Format: biochemical

Sequence of USP7 (Q93009 whole entry): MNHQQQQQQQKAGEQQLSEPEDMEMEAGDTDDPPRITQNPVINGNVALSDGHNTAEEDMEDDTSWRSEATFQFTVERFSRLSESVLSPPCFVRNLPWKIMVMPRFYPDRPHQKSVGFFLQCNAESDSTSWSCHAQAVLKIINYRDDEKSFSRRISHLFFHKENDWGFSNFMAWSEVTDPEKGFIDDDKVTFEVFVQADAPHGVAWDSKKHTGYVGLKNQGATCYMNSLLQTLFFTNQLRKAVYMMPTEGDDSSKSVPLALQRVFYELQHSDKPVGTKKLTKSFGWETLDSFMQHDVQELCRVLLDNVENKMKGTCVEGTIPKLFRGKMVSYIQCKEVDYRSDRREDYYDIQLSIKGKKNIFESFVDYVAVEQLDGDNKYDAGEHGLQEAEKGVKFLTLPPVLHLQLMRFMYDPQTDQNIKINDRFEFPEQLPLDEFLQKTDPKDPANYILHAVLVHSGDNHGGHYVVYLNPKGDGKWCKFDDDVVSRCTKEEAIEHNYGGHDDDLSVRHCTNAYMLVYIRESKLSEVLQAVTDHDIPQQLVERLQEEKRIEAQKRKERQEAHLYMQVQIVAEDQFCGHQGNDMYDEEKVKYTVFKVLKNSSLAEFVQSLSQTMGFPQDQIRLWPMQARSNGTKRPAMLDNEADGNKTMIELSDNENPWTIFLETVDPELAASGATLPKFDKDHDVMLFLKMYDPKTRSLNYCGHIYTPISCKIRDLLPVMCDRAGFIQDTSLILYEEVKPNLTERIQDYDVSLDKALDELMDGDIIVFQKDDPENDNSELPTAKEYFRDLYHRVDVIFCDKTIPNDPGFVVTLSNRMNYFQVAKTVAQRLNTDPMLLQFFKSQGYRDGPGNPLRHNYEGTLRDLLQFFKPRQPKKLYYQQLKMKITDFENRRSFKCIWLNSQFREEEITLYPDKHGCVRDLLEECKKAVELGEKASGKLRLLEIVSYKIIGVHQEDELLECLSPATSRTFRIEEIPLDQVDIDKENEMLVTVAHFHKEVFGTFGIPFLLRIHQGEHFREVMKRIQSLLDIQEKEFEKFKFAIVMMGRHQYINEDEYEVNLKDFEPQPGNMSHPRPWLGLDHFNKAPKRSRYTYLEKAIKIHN

`CC[C@@H](O)c1cc2nccc(-c3cc(Cl)cc4c3O[C@@](C)(c3onc5c3CNCC5)C4)c2s1` [(R)-1-(7-((R)-5-chloro-2-methyl-2-(4,5,6,7-tetrahydroisoxazolo[4,3-c]pyridin-3-yl)-2,3-dihydrobenzofuran-7-yl)thieno[3,2-b]pyridin-2-yl)propan-1-ol] and `CC[C@@H](O)c1cc2nccc(-c3cc(Cl)cc4c3O[C@](C)(c3onc5c3CNCC5)C4)c2s1` [(R)-1-(7-((S)-5-chloro-2-methyl-2-(4,5,6,7-tetrahydroisoxazolo[4,3-c]pyridin-3-yl)-2,3-dihydrobenzofuran-7-yl)thieno[3,2-b]pyridin-2-yl)propan-1-ol] cannot be ordered by IC50: under 1 µM for the first, under 1 µM for the second.

`O=C1CCC(=O)N1Cc1cc2ncnc(-c3cc(Cl)cc4c3O[C@@H](c3onc5c3CNCC5)C4)c2o1` [(R)-1-((4-(5-chloro-2-(4,5,6,7-tetrahydroisoxazolo[4,3-c]pyridin-3-yl)-2,3-dihydrobenzofuran-7-yl)furo[3,2-d]pyrimidin-6-yl)methyl)pyrrolidine-2,5-dione] and `O=C1CCC(=O)N1Cc1cc2ncnc(-c3cc(Cl)cc4c3O[C@@H](c3onc5c3CNCC5)C4)c2s1` [(R)-1-((4-(5-chloro-2-(4,5,6,7-tetrahydroisoxazolo[4,3-c]pyridin-3-yl)-2,3-dihydrobenzofuran-7-yl)thieno[3,2-d]pyrimidin-6-yl)methyl)pyrrolidine-2,5-dione] cannot be ordered by IC50: under 1 µM for the first, under 1 µM for the second.

Compared with `O=C1CCC(=O)N1Cc1ccc2c(-c3cc(Cl)cc4c3O[C@@H](c3onc5c3CNCC5)C4)ccnc2c1` [(R)-1-((4-(5-chloro-2-(4,5,6,7-tetrahydroisoxazolo[4,3-c]pyridin-3-yl)-2,3-dihydrobenzofuran-7-yl)quinolin-7-yl)methyl)pyrrolidine-2,5-dione], `O=C1CCC(=O)N1Cc1cc2nccc(-c3cc(Cl)cc4c3O[C@@H](c3onc5c3CNCC5)C4)c2s1` [(R)-1-((7-(5-chloro-2-(4,5,6,7-tetrahydroisoxazolo[4,3-c]pyridin-3-yl)-2,3-dihydrobenzofuran-7-yl)thieno[3,2-b]pyridin-2-yl)methyl)pyrrolidine-2,5-dione] is lower in IC50: 1 to 10 µM for the first, under 1 µM for the second. The second is the more potent here.

`O=C([C@H]1Cc2cc(Cl)cc(-c3ncnc4cc(CN5C(=O)CCC5=O)oc34)c2O1)N1CCNCC1` [(R)-1-((4-(5-chloro-2-(piperazine-1-carbonyl)-2,3-dihydrobenzofuran-7-yl)furo[3,2-d]pyrimidin-6-yl)methyl)pyrrolidine-2,5-dione] and `O=C([C@H]1Cc2cc(Cl)cc(-c3ncnc4cc(CN5C(=O)CCC5=O)sc34)c2O1)N1CCNCC1` [(R)-1-((4-(5-chloro-2-(piperazine-1-carbonyl)-2,3-dihydrobenzofuran-7-yl)thieno[3,2-d]pyrimidin-6-yl)methyl)pyrrolidine-2,5-dione] cannot be ordered by IC50: under 1 µM for the first, under 1 µM for the second.

`O=C([C@H]1Cc2cc(Cl)cc(-c3ccnc4cc(CN5C(=O)CCC5=O)ccc34)c2O1)N1CCNCC1` [(R)-1-((4-(5-chloro-2-(piperazine-1-carbonyl)-2,3-dihydrobenzofuran-7-yl)quinolin-7-yl)methyl)pyrrolidine-2,5-dione] and `O=C([C@H]1Cc2cc(Cl)cc(-c3ccnc4cc(CN5C(=O)CCCC5=O)sc34)c2O1)N1CCNCC1` [(R)-1-((7-(5-chloro-2-(piperazine-1-carbonyl)-2,3-dihydrobenzofuran-7-yl)thieno[3,2-b]pyridin-2-yl)methyl)piperidine-2,6-dione] cannot be ordered by IC50: under 1 µM for the first, under 1 µM for the second.

`Cn1nc2c(c1[C@H]1Cc3cc(Cl)cc(-c4ccnc5cc(CN6C(=O)CCC6=O)sc45)c3O1)CNCC2` [(R)-1-((7-(5-chloro-2-(2-methyl-4,5,6,7-tetrahydro-2H-pyrazolo[4,3-c]pyridin-3-yl)-2,3-dihydrobenzofuran-7-yl)thieno[3,2-b]pyridin-2-yl)methyl)pyrrolidine-2,5-dione] and `CCc1cc2nccc(-c3cc(Cl)cc4c3O[C@@H](c3onc5c3CNCC5)C4)c2s1` [(R)-3-(5-chloro-7-(2-ethylthieno[3,2-b]pyridin-7-yl)-2,3-dihydrobenzofuran-2-yl)-4,5,6,7-tetrahydroisoxazolo[4,3-c]pyridine] cannot be ordered by IC50: under 1 µM for the first, under 1 µM for the second.

`O=C1CCC(=O)N1Cc1cc2nccc(-c3cc(Cl)cc4c3O[C@@H](c3onc5c3CNCC5)C4)n2n1` [(R)-1-((7-(5-chloro-2-(4,5,6,7-tetrahydroisoxazolo[4,3-c]pyridin-3-yl)-2,3-dihydrobenzofuran-7-yl)pyrazolo[1,5-a]pyrimidin-2-yl)methyl)pyrrolidine-2,5-dione] and `Cc1cc2nccc(-c3cc(Cl)cc4c3O[C@@H](c3onc5c3CNCC5)C4)c2s1` [(R)-3-(5-chloro-7-(2-methylthieno[3,2-b]pyridin-7-yl)-2,3-dihydrobenzofuran-2-yl)-4,5,6,7-tetrahydroisoxazolo[4,3-c]pyridine] cannot be ordered by IC50: under 1 µM for the first, under 1 µM for the second.

`COc1ccc(CN2C(=O)CN(Cc3cc4nccc(-c5cc(Cl)cc6c5O[C@@H](C(=O)N5CCNCC5)C6)c4s3)C2=O)cc1` [(R)-1-((7-(5-chloro-2-(piperazine-1-carbonyl)-2,3-dihydrobenzofuran-7-yl)thieno[3,2-b]pyridin-2-yl)methyl)-3-(4-methoxybenzyl)imidazolidine-2,4-dione] and `O=C1CN(Cc2cc3nccc(-c4cc(Cl)cc5c4O[C@@H](C(=O)N4CCNCC4)C5)c3s2)C(=O)N1` [(R)-1-((7-(5-chloro-2-(piperazine-1-carbonyl)-2,3-dihydrobenzofuran-7-yl)thieno[3,2-b]pyridin-2-yl)methyl)imidazolidine-2,4-dione] cannot be ordered by IC50: under 1 µM for the first, under 1 µM for the second.

`CN1CCN(Cc2cc3nccc(-c4cc(Cl)cc5c4O[C@@H](C(=O)N4CCNCC4)C5)c3s2)C1=O` [(R)-1-((7-(5-chloro-2-(piperazine-1-carbonyl)-2,3-dihydrobenzofuran-7-yl)thieno[3,2-b]pyridin-2-yl)methyl)-3-methylimidazolidin-2-one] and `C[C@@H]1CCN(Cc2cc3nccc(-c4cc(Cl)cc5c4O[C@@H](C(=O)N4CCNCC4)C5)c3s2)C1=O` [(R)-1-((7-((R)-5-chloro-2-(piperazine-1-carbonyl)-2,3-dihydrobenzofuran-7-yl)thieno[3,2-b]pyridin-2-yl)methyl)-3-methylpyrrolidin-2-one] cannot be ordered by IC50: under 1 µM for the first, under 1 µM for the second.

`O=C1CCCN1Cc1cc2nccc(-c3cc(Cl)cc4c3O[C@@H](C(=O)N3CCNCC3)C4)c2s1` [(R)-1-((7-(5-chloro-2-(piperazine-1-carbonyl)-2,3-dihydrobenzofuran-7-yl)thieno[3,2-b]pyridin-2-yl)methyl)pyrrolidin-2-one] and `NS(=O)(=O)CCc1cc2nccc(-c3cc(Cl)cc4c3O[C@@H](C(=O)N3CCNCC3)C4)c2s1` [(R)-2-(7-(5-chloro-2-(piperazine-1-carbonyl)-2,3-dihydrobenzofuran-7-yl)thieno[3,2-b]pyridin-2-yl)ethane-1-sulfonamide] cannot be ordered by IC50: under 1 µM for the first, under 1 µM for the second.

`O=C([C@H]1Cc2cc(Cl)cc(-c3ccnc4cc(CCN5C(=O)c6ccccc6C5=O)sc34)c2O1)N1CCNCC1` [(R)-2-(2-(7-(5-chloro-2-(piperazine-1-carbonyl)-2,3-dihydrobenzofuran-7-yl)thieno[3,2-b]pyridin-2-yl)ethyl)isoindoline-1,3-dione] and `O=C([C@H]1Cc2cc(Cl)cc(-c3ccnc4cc(CN5C(=O)c6ccccc6C5=O)sc34)c2O1)N1CCNCC1` [(R)-2-((7-(5-chloro-2-(piperazine-1-carbonyl)-2,3-dihydrobenzofuran-7-yl)thieno[3,2-b]pyridin-2-yl)methyl)isoindoline-1,3-dione] cannot be ordered by IC50: under 1 µM for the first, under 1 µM for the second.

First: OCCN1CCc2noc([C@H]3Cc4cc(Cl)cc(-c5ncnc6ccoc56)c4O3)c2C1 [(R)-2-(3-(5-chloro-7-(furo[3,2-d]pyrimidin-4-yl)-2,3-dihydrobenzofuran-2-yl)-6,7-dihydroisoxazolo[4,3-c]pyridin-5(4H)-yl)ethan-1-ol]
Second: Cc1cc2ncnc(-c3cc(Cl)cc4c3O[C@@H](c3onc5c3CNCC5)C4)c2o1 [(R)-3-(5-chloro-7-(6-methylfuro[3,2-d]pyrimidin-4-yl)-2,3-dihydrobenzofuran-2-yl)-4,5,6,7-tetrahydroisoxazolo[4,3-c]pyridine]
The IC50 of the first is higher: 1 to 10 µM for the first, under 1 µM for the second.

First: CN(C)S(=O)(=O)CCc1cc2nccc(-c3cc(Cl)cc4c3O[C@@H](C(=O)N3CCNCC3)C4)c2s1 [(R)-2-(7-(5-chloro-2-(piperazine-1-carbonyl)-2,3-dihydrobenzofuran-7-yl)thieno[3,2-b]pyridin-2-yl)-N,N-dimethylethane-1-sulfonamide]
Second: COc1ccc2nccc(-c3cc(Cl)cc4c3O[C@@H](c3onc5c3CNCC5)C4)c2c1 [(R)-3-(5-chloro-7-(6-methoxyquinolin-4-yl)-2,3-dihydrobenzofuran-2-yl)-4,5,6,7-tetrahydroisoxazolo[4,3-c]pyridine]
The IC50 of the first is lower: under 1 µM for the first, 10 to 30 µM for the second. The first is the more potent here.

First: Cc1nc(-c2cc(Cl)cc3c2O[C@@H](c2onc4c2CNCC4)C3)c2sccc2n1 [(R)-3-(5-chloro-7-(2-methylthieno[3,2-d]pyrimidin-4-yl)-2,3-dihydrobenzofuran-2-yl)-4,5,6,7-tetrahydroisoxazolo[4,3-c]pyridine]
Second: Cc1cc2ncnc(-c3cc(Cl)cc4c3O[C@@H](c3onc5c3CNCC5)C4)c2s1 [(R)-3-(5-chloro-7-(6-methylthieno[3,2-d]pyrimidin-4-yl)-2,3-dihydrobenzofuran-2-yl)-4,5,6,7-tetrahydroisoxazolo[4,3-c]pyridine]
The IC50 of the first is higher: 10 to 30 µM for the first, under 1 µM for the second. The second is the more potent here.

Compared with `CCC1(CC)Cc2nccc(-c3cc(Cl)cc4c3O[C@@H](c3onc5c3CNCC5)C4)c2C1` [(R)-3-(5-chloro-7-(6,6-diethyl-6,7-dihydro-5H-cyclopenta[b]pyridin-4-yl)-2,3-dihydrobenzofuran-2-yl)-4,5,6,7-tetrahydroisoxazolo[4,3-c]pyridine], `Fc1ccc2nccc(-c3cc(Cl)cc4c3O[C@@H](c3onc5c3CNCC5)C4)c2c1` [(R)-3-(5-chloro-7-(6-fluoroquinolin-4-yl)-2,3-dihydrobenzofuran-2-yl)-4,5,6,7-tetrahydroisoxazolo[4,3-c]pyridine] is lower in IC50: 1 to 10 µM for the first, under 1 µM for the second.

With `Clc1cc2c(c(-c3ncnc4c3CCC4)c1)O[C@@H](c1onc3c1CNCC3)C2` [(R)-3-(5-chloro-7-(6,7-dihydro-5H-cyclopenta[d]pyrimidin-4-yl)-2,3-dihydrobenzofuran-2-yl)-4,5,6,7-tetrahydroisoxazolo[4,3-c]pyridine] the IC50 was 10 to 30 µM.
